From patent US20090203644A1, “Compositions for treating and/or preventing diseases characterized by the presence of metal ions” (GrenPharma LLC, priority 2004, published 2009)
Entries after “also recorded” stand apart in the source; their conditions may differ. Structures can show the parent of a compound that is named as a salt. Where two headings read alike, the source gives them in different places. One block for each compound: values may come before it.

Key:
human subject = conditions: in vivo, po
A-beta peptide fragment = A-beta peptide fragment (Homo sapiens, UniProt P05067); assay: CD helix-coil reversal and pretreatment experiments (Example 11); type: biochemical
A-beta peptide fragment, sequence (P05067 672-713): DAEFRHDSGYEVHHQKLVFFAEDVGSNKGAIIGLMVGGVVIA

A-beta peptide [1] = system: A-beta peptide; design: species or system human
A-beta antigen = system: A-beta antigen; design: species or system human
A-beta1-42 peptide [2] = biological target: T1, A-beta1-42 peptide (Homo sapiens, UniProt P05067); type: biochemical
T1 sequence (P05067 672-713): as above

A-beta peptide [3] = biological target: A-beta peptide (Homo sapiens, UniProt P05067); type: biochemical
A-beta peptide (Homo sapiens, UniProt P05067), sequence (P05067 672-713): as above

[4] = in vivo; cited from earlier work
[5] = biological target: peptide 1 (A-beta1-42 peptide) (Homo sapiens, UniProt P05067); type: biochemical
peptide 1 (A-beta1-42 peptide), sequence (P05067 672-713): as above

A-beta1-42 peptide [6] = biological target: T1, A-beta1-42 peptide; type: biochemical; remark: listed apart in the source
[7] = 20 mM in 25 mM or 100 mM MOPS, pH 7.1
[8] = Permeation of Transwell membranes alone (wells without cells)

SMILES: C[Si](C)(Cl)CC[Si](C)(C)Cl
effect on development of neurofibrillary tangles and senile plaques (human subject): interferes with further development of neurofibrillary tangles and senile plaques

SMILES: C[Si](Cl)(Cl)CCC#N [CEMS, 2-cyanoethylmethyldichlorosilane]
protection against loss of helicity upon addition of Al(ClO4)3 (A-beta peptide fragment): protection against loss of helicity
recovery of helical structure (CD) (A-beta peptide fragment): recovery of helical structure
recovery of helicity (CD) (A-beta peptide fragment): recovery of helicity
recovery of helicity in Al-denatured peptide / reversal of aluminum-induced denaturation (CD) (A-beta peptide fragment): appeared to reverse aluminum-induced denaturation; also recorded: recovery of helicity
Permeation Coefficient (cm/sec) Mean ± SD, where applicable (Caco-2 cells; human, Caco-2): 4.6e-06 cm/s
Total Permeation Coefficient (cm/sec) Mean ± SD, where applicable, Caco-2 (Caco-2 cells; human, Caco-2): 4.6e-06 cm/s
total extracted (A-beta peptide [1]): 4.5 fmol
total extracted (A-beta antigen): 1.4 fmol
Total Permeation Coefficient (cm/sec) Mean ± SD, where applicable, MDCK (MDCK cells; dog): 1.3e-06 cm/s
amount of Al added until which helicity was preserved (A-beta1-42 peptide [2]): about 1 equivalent
protection of helical structure of A-beta1-42 against amyloid formation by aluminum (III) (A-beta1-42 peptide [2]): protection of the helical structure
protection from and/or reversal of metal-induced aggregation (DLS) (A-beta peptide [3]): protection against Al^3+-induced aggregation

SMILES: O=C(O)CN(CCN(CC(=O)O)CC(=O)O)CC(=O)O [EDTA, ethylenediaminetetraacetic acid]
time typical doses last in the body [4]: about 1 hour

SMILES: Cl [HCl, hydrochloric acid, reference compound]
reversal of / protection from metal-induced loss of helix in TFE solutions (CD) (A-beta peptide fragment; polyvalent metal ions as perchlorate salts): can reverse the loss of helix
reversing the metal-induced helix-coil transition ([5]; acid, product of hydrolysis of chlorosilanes): itself effective for reversing the helix-coil transition
Total Extracted (fmol) (A-beta antigen): no detectable antigen

SMILES: [Zn] [Zinc]
effect on the A-beta1-42 CD spectrum (disruption of the alpha helix) (A-beta1-42 peptide [6]): minor or no effects

SMILES: C[Si](O)(O)CCCC#N [compound 3f, (dihydroxy)methyl(3-cyanopropyl)silane]
recovery of the CD spectrum on titration of iron-complexed peptide 1 [5]: dosage effect is evident, but non-linear
stability, solubility and effectiveness in reversing and/or preventing the effect of metal ion on helix formation [5]: efficient combination of stability, solubility, and effectiveness
titration point showing the greatest degree of recovery [5]: 0.25 eq.

SMILES: C[Si](Cl)(Cl)CC[Si](C)(Cl)Cl [compound 1042, 1,2-(methyldichlorosilyl)ethane]
recovery of helicity in Al-denatured peptide / reversal of aluminum-induced denaturation (CD) (A-beta peptide fragment; TFE solution, Al(ClO4)3): recovery of helicity
Cell Permeation Coefficient (cm/sec) Caco-2 (Caco-2 cells; Caco-2): 6.7e-05 cm/s
Permeation Coefficient (cm/sec) Mean ± SD, where applicable (Caco-2 cells; Caco-2): 2.5e-05 cm/s
Total Permeation Coefficient (cm/sec) Mean ± SD, where applicable, Caco-2 (Caco-2 cells; Caco-2): 1.9 ± 1.1 × 10^−5 cm/sec
cell permeation coefficient compared with mannitol, Caco-2 (Caco-2 cells; Caco-2): at least ten times greater
crossing of the epithelial barrier in the Caco-2 model (Caco-2 cells; Caco-2): cross the epithelial barrier relatively efficiently
permeation across Caco-2 cells compared with mannitol (Caco-2 cells; Caco-2): at least ten times greater
amyloid extracted compared with MOPS / buffer controls (A-beta peptide [1]): more amyloid
share of total antigen released to the extract (A-beta peptide [1]): approximately 6%
total extracted (A-beta peptide [1]): 17.2 fmol
share of total antigen released to the extract (A-beta antigen): approximately 12%
total extracted (A-beta antigen): 14.0 fmol
time for which solutions were free of precipitate or colloidal suspensions / stable after preparation [7]: at least 24 hours
Cell Permeation Coefficient (cm/sec) MDCK (MDCK cells): 5.6e-05 cm/s
Total Permeation Coefficient (cm/sec) Mean ± SD, where applicable, MDCK (MDCK cells): 1.8 ± 1.2 × 10^−5 cm/sec
cell permeation coefficient compared with mannitol, MDCK (MDCK cells): at least ten times greater
crossing of the epithelial barrier in the MDCK model (MDCK cells): cross the epithelial barrier relatively efficiently
permeation across MDCK cells compared with mannitol (MDCK cells): at least ten times greater

SMILES: [Fe+2] [iron (II)]
effect on the A-beta1-42 CD spectrum (disruption of the alpha helix) (A-beta1-42 peptide [6]): minor or no effects

Transwell Permeation Coeff. Mean ± SD, where applicable [8]: 3.6 ± 0.3 × 10^−5 cm/sec
Cell Permeation Coefficient (cm/sec) Caco-2 (Caco-2 cells; human, Caco-2, 60 min): 2.6e-06 cm/s
Permeation Coefficient (cm/sec) Mean ± SD, where applicable (Caco-2 cells; human, Caco-2, 60 min, 20 mM): 1.9 ± 1.9 × 10^−6 cm/sec
Total Permeation Coefficient (cm/sec) Mean ± SD, where applicable, Caco-2 (Caco-2 cells; human, Caco-2, 60 min, 20 mM): 1.9 ± 1.9 × 10^−6 cm/sec
Cell Permeation Coefficient (cm/sec) MDCK (MDCK cells; dog, 60 min): 1.4e-06 cm/s
Total Permeation Coefficient (cm/sec) Mean ± SD, where applicable, MDCK (MDCK cells; dog, 60 min, 20 mM): 1.3 ± 1.0 × 10^−6 cm/sec
SMILES: OC[C@@H](O)[C@@H](O)[C@H](O)[C@H](O)CO [mannitol, reference compound]
